# Assay results published in US20110230481A2, “DERIVATIVES OF TETRABROMOBENZIMIDAZOLE, A PROCESS FOR THE PREPARATION THEREOF, A PHARMACEUTICAL COMPOSITION COMPRISING THE SAME, A METHOD OF USING THE SAME, A METHOD FOR MODULATING OR REGULATING SERINE/THREONINE KINASES, AND SERINE/THREONINE KINASES MODULATING AGENT” (SELVITA S.A., priority 2009, published 2011).
# Legend:
# Assay in all cases: KINOMEscan Max
# Type in all cases: binding
# [1] = target: ABL1(F317I)-phosphorylated (Homo sapiens, UniProt P00519, F317I)
# Method in brief: (§1)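 qPCR read-out of a DNA tag measures how much tagged kinase stays bound to immobilized active-site ligand when test compound is present, i.e. competition binding.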
# [2] = target: ABL1(M351T)-phosphorylated (Homo sapiens, UniProt P00519, M351T)
# Method in brief: as §1
# [3] = target: ACVR1 (Homo sapiens, UniProt Q04771)
# Method in brief: as §1
# [4] = target: AKT2 (Homo sapiens, UniProt P31751)
# Chain of AKT2 (P31751 whole entry): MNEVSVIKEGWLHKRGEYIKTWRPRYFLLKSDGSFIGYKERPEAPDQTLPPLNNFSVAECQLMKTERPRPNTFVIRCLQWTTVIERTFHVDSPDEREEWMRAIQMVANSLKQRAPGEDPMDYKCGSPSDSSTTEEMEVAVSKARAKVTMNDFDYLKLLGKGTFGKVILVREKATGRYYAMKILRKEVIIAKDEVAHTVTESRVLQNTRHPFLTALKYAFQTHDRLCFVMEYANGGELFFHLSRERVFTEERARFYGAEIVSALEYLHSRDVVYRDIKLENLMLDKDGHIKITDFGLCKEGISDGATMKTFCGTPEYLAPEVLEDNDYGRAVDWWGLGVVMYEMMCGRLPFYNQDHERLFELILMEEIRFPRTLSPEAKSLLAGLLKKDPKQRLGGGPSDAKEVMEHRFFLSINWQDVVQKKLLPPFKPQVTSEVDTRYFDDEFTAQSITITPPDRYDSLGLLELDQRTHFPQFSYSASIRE
# Method in brief: as §1
# [5] = target: T1, AKT3 (Homo sapiens, UniProt Q9Y243)
# T1 construct: purchased Ambit (KINOMEscan Max service)
# Method in brief: as §1
# [6] = target: T2, ANKK1 (Homo sapiens, UniProt Q8NFD2)
# T2 construct: DNA tag (qPCR label); purchased Ambit Kinomescan (contract screening)
# Method in brief: as §1
# [7] = target: T3, CAMK1 (Homo sapiens, UniProt Q14012)
# T3 construct: purchased Ambit Kinomescan (contract screening)
# Method in brief: as §1
# [8] = target: T4, CDK7 (Homo sapiens, UniProt P50613)
# T4 construct: DNA tag (qPCR read-out)
# Method in brief: as §1
# [9] = target: T5, CSF1R (Homo sapiens, UniProt P07333)
# T5 construct: purchased Ambit (KINOMEscan Max panel service)
# Method in brief: as §1
# [10] = target: T6, DDR1 (Homo sapiens, UniProt Q08345)
# T6 construct: purchased Ambit (KINOMEscan Max panel service)
# Method in brief: as §1
# [11] = target: T7, DDR2 (Homo sapiens, UniProt Q16832)
# T7 construct: purchased Ambit (KINOMEscan Max panel service)
# Method in brief: as §1
# [12] = target: DRAK1 (Homo sapiens, UniProt Q9UEE5)
# Method in brief: as §1
# [13] = target: T8, EPHA5 (Homo sapiens, UniProt P54756); conditions: 1 μM
# T8 construct: purchased Ambit (KINOMEscan Max panel service)
# Method in brief: as §1
# [14] = target: T9, EPHA7 (Homo sapiens, UniProt Q15375)
# T9 construct: purchased Ambit (KINOMEscan Max panel service)
# Method in brief: as §1
# [15] = target: ERK3 (Homo sapiens, UniProt Q16659)
# Method in brief: as §1
# [16] = target: T10, FGFR3(G697C) (Homo sapiens, UniProt P22607, G697C)
# T10 construct: purchased Ambit Kinomescan (contract panel, KINOMEscan Max)
# Method in brief: as §1
# [17] = target: T11, FLT1 (Homo sapiens, UniProt P17948)
# T11 construct: purchased Ambit Kinomescan (contract panel, KINOMEscan Max)
# T11 sequence (P17948 27-1338): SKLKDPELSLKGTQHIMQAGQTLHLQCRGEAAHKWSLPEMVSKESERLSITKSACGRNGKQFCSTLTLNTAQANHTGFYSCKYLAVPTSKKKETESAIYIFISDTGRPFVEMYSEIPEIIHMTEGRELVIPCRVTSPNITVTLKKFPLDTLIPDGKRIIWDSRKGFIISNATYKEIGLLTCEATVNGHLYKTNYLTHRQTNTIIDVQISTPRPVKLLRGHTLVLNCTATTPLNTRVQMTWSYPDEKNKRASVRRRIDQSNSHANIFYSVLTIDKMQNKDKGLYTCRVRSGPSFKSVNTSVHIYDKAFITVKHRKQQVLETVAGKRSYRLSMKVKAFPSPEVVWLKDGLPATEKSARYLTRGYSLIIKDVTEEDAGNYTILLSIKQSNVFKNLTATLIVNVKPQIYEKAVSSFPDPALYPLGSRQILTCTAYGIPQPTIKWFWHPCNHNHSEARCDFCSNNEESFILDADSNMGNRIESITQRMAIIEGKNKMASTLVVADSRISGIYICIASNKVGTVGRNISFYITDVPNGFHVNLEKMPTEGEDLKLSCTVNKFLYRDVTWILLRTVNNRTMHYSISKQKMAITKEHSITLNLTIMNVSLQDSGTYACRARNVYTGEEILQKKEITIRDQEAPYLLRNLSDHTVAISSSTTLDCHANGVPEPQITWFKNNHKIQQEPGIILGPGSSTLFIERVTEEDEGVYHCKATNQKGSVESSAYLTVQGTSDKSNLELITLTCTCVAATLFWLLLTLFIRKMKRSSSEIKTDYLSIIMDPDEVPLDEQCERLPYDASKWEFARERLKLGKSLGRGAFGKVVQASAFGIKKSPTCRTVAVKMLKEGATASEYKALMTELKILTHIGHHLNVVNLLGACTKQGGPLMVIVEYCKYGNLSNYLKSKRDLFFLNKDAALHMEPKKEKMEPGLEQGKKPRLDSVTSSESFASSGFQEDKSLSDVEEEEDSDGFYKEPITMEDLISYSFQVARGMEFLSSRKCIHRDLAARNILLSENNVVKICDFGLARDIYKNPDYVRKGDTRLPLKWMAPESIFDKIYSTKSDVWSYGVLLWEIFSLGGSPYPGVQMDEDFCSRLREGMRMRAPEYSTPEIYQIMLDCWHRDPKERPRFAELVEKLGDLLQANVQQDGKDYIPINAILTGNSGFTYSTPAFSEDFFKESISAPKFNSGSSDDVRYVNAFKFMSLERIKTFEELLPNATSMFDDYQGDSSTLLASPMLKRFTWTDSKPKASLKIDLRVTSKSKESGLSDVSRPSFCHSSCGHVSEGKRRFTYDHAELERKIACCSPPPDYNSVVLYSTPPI
# Method in brief: as §1
# [18] = target: T12, HUNK (Homo sapiens, UniProt P57058)
# T12 construct: purchased Ambit Kinomescan (contract panel, KINOMEscan Max)
# Method in brief: as §1
# [19] = target: T13, KIT(D816V) (Homo sapiens, UniProt P10721, D816V)
# T13 construct: purchased Ambit (KINOMEscan Max service)
# T13 sequence (P10721 26-976 D816V): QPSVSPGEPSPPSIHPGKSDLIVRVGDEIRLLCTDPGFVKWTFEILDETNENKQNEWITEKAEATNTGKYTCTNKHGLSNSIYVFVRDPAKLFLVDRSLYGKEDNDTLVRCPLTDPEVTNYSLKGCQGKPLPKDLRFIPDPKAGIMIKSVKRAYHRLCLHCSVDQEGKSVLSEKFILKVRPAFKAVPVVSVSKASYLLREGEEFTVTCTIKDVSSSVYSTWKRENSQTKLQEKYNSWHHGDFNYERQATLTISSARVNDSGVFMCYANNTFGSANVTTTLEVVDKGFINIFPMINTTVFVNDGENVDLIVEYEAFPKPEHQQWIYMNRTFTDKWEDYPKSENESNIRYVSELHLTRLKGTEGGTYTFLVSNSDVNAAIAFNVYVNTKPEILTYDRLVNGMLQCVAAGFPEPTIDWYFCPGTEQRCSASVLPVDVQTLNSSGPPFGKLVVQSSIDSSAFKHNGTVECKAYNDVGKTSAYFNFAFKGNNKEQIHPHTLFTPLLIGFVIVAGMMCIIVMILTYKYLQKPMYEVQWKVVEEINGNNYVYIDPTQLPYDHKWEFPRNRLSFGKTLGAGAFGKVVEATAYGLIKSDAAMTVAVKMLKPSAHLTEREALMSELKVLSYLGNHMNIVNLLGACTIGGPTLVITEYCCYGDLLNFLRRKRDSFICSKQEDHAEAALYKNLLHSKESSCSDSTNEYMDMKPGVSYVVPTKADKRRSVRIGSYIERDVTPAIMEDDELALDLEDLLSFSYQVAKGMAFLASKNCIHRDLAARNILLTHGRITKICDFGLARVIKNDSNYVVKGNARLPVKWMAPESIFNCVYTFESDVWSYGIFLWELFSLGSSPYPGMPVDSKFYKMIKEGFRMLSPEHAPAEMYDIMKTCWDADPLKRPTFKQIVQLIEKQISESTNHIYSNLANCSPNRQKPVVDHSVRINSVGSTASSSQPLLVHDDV
# Method in brief: as §1
# [20] = target: T14, MARK4 (Homo sapiens, UniProt Q96L34); conditions: 1 μM
# T14 construct: purchased Ambit (KINOMEscan Max service)
# Method in brief: as §1
# [21] = target: MKNK1 (Homo sapiens, UniProt Q9BUB5)
# Chain of MKNK1 (Q9BUB5 whole entry): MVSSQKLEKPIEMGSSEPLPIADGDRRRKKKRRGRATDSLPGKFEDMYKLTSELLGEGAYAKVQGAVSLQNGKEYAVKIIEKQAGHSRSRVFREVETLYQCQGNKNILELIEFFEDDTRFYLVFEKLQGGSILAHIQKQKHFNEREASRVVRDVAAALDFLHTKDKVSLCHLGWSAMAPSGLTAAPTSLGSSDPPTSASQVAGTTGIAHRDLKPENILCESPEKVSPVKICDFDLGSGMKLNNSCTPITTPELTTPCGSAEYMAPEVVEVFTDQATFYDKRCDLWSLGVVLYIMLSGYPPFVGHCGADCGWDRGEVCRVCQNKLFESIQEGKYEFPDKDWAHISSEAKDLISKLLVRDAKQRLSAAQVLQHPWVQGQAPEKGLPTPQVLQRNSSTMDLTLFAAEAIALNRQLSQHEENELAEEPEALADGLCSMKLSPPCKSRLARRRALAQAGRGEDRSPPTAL
# Method in brief: as §1
# [22] = target: MRCKA (Homo sapiens, UniProt Q5VT25)
# Method in brief: as §1
# [23] = target: NEK3 (Homo sapiens, UniProt P51956)
# Method in brief: as §1
# [24] = target: T15, PAK2 (Homo sapiens, UniProt Q13177)
# T15 construct: purchased Ambit (KINOMEscan Max service)
# T15 sequence (Q13177 whole entry): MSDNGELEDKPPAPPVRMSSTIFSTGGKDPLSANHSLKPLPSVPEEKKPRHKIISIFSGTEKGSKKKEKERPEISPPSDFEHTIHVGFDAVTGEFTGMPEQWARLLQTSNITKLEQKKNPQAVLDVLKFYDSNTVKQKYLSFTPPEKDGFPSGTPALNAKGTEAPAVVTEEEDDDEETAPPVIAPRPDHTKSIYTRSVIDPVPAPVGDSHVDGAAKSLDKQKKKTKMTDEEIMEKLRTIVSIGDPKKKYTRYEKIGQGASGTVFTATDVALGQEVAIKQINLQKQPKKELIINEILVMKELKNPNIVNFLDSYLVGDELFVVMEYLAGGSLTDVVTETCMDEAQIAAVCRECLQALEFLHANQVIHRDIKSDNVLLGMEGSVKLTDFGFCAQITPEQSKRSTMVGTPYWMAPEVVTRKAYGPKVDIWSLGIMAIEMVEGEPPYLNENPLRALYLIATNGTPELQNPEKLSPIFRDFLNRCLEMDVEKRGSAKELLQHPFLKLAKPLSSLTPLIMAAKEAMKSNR
# Method in brief: as §1
# [25] = target: T16, PAK4 (Homo sapiens, UniProt O96013)
# T16 construct: purchased Ambit (KINOMEscan Max service)
# Method in brief: as §1
# [26] = target: PCTK1 (Homo sapiens, UniProt Q00536)
# Method in brief: as §1
# [27] = target: T17, PIK3CA(C420R) (Homo sapiens, UniProt P42336, C420R)
# T17 construct: DNA tag (qPCR read-out)
# Method in brief: as §1
# [28] = target: T18, RET (Homo sapiens, UniProt P07949)
# T18 construct: DNA tag (qPCR read-out)
# Method in brief: as §1
# [29] = target: T19, RSK2(Kin.Dom.1-N-terminal) (Homo sapiens, UniProt P51812)
# T19 construct: RSK2(Kin.Dom.1-N-terminal); DNA tag (qPCR read-out)
# T19 sequence (P51812 68-327 limits assumed): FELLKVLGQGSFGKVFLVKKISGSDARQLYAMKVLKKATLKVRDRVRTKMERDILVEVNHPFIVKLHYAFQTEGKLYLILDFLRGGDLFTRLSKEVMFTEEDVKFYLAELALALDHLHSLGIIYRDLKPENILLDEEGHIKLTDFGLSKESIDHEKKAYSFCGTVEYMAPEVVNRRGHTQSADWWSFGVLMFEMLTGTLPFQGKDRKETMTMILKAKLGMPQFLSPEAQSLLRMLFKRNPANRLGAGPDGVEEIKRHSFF
# Method in brief: as §1
# [30] = target: T20, SGK3 (Homo sapiens, UniProt Q96BR1)
# T20 construct: DNA tag (qPCR read-out)
# Method in brief: as §1
# [31] = target: T21, TAOK1 (Homo sapiens, UniProt Q7L7X3)
# T21 construct: DNA tag (qPCR read-out)
# Method in brief: as §1
# [32] = target: T22, TAOK3 (Homo sapiens, UniProt Q9H2K8)
# T22 construct: purchased Ambit Kinomescan (contract screening service)
# T22 sequence (Q9H2K8 whole entry): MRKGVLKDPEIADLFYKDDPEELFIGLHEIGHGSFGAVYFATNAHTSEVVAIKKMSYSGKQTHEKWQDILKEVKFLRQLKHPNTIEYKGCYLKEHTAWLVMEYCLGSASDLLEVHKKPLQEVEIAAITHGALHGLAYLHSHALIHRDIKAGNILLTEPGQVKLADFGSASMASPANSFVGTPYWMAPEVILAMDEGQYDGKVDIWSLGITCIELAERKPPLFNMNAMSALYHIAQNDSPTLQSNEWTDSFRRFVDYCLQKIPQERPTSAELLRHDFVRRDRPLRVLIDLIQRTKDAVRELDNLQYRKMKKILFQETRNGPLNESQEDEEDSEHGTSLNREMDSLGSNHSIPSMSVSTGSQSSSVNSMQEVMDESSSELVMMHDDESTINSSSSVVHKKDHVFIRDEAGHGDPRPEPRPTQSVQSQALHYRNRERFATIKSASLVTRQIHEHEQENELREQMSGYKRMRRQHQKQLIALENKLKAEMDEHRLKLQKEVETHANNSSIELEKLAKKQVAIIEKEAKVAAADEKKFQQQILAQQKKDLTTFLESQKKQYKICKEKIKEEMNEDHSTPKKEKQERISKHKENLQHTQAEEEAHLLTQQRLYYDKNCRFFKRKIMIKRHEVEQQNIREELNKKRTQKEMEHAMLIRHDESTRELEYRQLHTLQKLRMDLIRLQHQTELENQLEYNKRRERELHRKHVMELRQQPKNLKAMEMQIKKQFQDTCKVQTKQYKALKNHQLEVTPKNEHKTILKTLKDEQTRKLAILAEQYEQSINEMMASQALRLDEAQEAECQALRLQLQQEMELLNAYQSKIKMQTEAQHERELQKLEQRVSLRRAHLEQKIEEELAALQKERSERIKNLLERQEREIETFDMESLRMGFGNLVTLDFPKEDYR
# Method in brief: as §1
# [33] = target: T23, TLK1 (Homo sapiens, UniProt Q9UKI8)
# T23 construct: DNA tag (qPCR read-out)
# Method in brief: as §1
# [34] = target: T24, TNK2 (Homo sapiens, UniProt Q07912)
# T24 construct: purchased Ambit Kinomescan (contract screening service)
# Method in brief: as §1
smiles,measurement,setting,value
"NCCCNc1nc2c(Br)c(Br)c(Br)c(Br)c2[nH]1 [Compound 11, N-(3-aminopropyl)-4,5,6,7-tetrabromo-1H-benzo[d]imidazol-2-amine]",remaining binding at 1 µM,[1],100%
same,remaining binding at 1 µM,[2],100%
same,remaining binding at 1 µM,[3],100%
same,remaining binding at 1 µM,[4],99%
same,remaining binding at 1 µM,[5],83%
same,remaining binding at 1 µM,[6],100%
same,remaining binding at 1 µM,[7],98%
same,remaining binding at 1 µM,[8],27%
same,remaining binding at 1 µM,[9],100%
same,remaining binding at 1 µM,[10],100%
same,remaining binding at 1 µM,[11],100%
same,remaining binding at 1 µM,[12],75%
same,% binding,[13],100%
same,remaining binding at 1 µM,[14],100%
same,remaining binding at 1 µM,[15],75%
same,remaining binding at 1 µM,[16],100%
same,remaining binding at 1 µM,[17],100%
same,remaining binding at 1 µM,[18],100%
same,remaining binding at 1 µM,[19],60%
same,% binding,[20],84%
same,remaining binding at 1 µM,[21],100%
same,remaining binding at 1 µM,[22],100%
same,remaining binding at 1 µM,[23],93%
same,remaining binding at 1 µM,[24],64%
same,remaining binding at 1 µM,[25],85%
same,remaining binding at 1 µM,[26],100%
same,remaining binding at 1 µM,[27],100%
same,remaining binding at 1 µM,[28],100%
same,remaining binding at 1 µM,[29],100%
same,remaining binding at 1 µM,[30],100%
same,remaining binding at 1 µM,[31],100%
same,remaining binding at 1 µM,[32],100%
same,remaining binding at 1 µM,[33],89%
same,remaining binding at 1 µM,[34],100%
